For series [1] the following is noted: amide bond, 13-membered ring.
Series [2] has as its target T1, CFTR (Homo sapiens, UniProt P13569). Put plainly: Membrane Potential Dye, Enteroid Assay B. It is filed as cell-based. The procedure, abridged:
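Activity given as % of a triple-combination reference (1 μM and 3 μM correctors, 300 nM acute potentiator). Enteroids were preincubated 18-24 h with compound; chloride efflux then measured 15 min by methyl oxonol fluorescence after forskolin/IBMX/Compound III stimulation in chloride-free buffer containing CaCCinh-A01 and Chicago Sky Blue.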

Series [3] addresses T1, CFTR. Description: Membrane Potential Dye, Enteroid Assay A. The series is classed as cell-based. In short, it runs like this:
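Primary human intestinal enteroid cells exposed to compound for 18–24 hours at 37 °C, then loaded 25 min with methyl oxonol membrane potential dye plus CaCC inhibitors. Chloride transport triggered in chloride-free buffer with 10 μM forskolin, 100 μM IBMX and 300 nM Compound III, fluorescence read 15 min; % Activity relative to a triple-combination corrector/potentiator control.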

Setting [4] is: Table 10, read-out: Ent. B EC50.

pEC50: −log10 of the molar value. Like-named read-outs stand apart in the source and are kept apart here. Some results are limits rather than exact numbers.

Broadly, the pEC50 is the negative decadic logarithm of the EC50, by convention in mol/L.

T1 sequence (P13569 with tags, fused parts or gaps DEL508-508): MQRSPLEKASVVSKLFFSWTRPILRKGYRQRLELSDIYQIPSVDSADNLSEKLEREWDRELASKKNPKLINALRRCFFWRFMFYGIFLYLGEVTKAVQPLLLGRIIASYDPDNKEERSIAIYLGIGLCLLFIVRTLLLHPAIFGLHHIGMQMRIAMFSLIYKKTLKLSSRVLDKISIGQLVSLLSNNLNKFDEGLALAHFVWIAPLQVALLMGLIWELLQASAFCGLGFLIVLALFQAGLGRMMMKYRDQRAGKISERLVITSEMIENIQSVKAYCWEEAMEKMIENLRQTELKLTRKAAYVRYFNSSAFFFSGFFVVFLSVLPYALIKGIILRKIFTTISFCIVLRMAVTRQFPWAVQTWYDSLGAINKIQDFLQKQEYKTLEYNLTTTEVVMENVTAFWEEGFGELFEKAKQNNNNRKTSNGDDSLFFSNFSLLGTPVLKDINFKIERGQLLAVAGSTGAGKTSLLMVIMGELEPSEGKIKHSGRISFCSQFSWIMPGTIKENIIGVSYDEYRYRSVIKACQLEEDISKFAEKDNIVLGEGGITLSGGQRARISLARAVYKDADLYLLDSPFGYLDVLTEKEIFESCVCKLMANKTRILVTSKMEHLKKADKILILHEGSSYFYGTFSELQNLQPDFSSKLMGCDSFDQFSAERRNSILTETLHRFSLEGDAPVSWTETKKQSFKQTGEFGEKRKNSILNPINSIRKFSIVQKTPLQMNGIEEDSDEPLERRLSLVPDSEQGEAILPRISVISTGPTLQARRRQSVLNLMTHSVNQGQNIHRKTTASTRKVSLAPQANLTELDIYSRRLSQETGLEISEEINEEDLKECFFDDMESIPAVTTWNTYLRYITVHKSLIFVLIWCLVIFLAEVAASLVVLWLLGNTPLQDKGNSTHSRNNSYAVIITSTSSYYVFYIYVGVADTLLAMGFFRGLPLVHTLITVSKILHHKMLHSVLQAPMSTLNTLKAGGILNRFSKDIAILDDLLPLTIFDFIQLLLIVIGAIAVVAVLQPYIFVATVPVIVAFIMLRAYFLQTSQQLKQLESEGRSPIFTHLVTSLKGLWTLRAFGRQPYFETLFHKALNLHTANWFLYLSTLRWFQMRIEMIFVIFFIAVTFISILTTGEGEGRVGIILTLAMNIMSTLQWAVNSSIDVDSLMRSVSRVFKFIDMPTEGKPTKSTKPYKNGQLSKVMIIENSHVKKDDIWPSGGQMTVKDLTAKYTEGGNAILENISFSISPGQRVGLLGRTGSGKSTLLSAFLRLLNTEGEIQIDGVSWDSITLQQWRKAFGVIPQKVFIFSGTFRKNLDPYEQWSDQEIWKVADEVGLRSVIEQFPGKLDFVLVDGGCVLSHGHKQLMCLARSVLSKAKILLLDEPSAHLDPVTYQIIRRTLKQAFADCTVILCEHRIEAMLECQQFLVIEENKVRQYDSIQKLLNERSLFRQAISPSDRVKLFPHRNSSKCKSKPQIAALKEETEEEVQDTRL

Turning to `Cc1cccc(C)c1-c1cc2nc(n1)NS(=O)(=O)c1cccc(c1)C(=O)N(C1CC3(CCN(C(=O)OC(C)(C)C)CC3)C1)C[C@@H](C)O2`, in series [1] (from Cc1cccc(C)c1-c1cc(O[C@H](C)CNC2CC3(CCN(C(=O)OC(C)(C)C)CC3)C2)nc(NS(=O)(=O)c2cccc(C(=O)O)c2)n1, HATU/DIEA, DMF, 8.8 mM, 6.0 h, 2 steps), the ring closure, isolated yield came to 28%.

Regarding `Cc1cccc(C)c1-c1cc2nc(n1)NS(=O)(=O)c1cccc(c1)C(=O)N(C1CC3(CCN(C(=O)OC(C)(C)C)CC3)C1)[C@@H](CC(C)C)CO2`, the ring closure, isolated yield in series [1] (from Cc1cccc(C)c1-c1cc(OC[C@H](CC(C)C)NC2CC3(CCN(C(=O)OC(C)(C)C)CC3)C2)nc(NS(=O)(=O)c2cccc(C(=O)O)c2)n1, HATU/DIEA, DMF/THF, 16.0 h, 2 steps) was found to be 18%.

In the case of `Cc1cccc(C)c1-c1cc2nc(n1)NS(=O)(=O)c1cccc(c1)C(=O)N(C1CCN(C(=O)OC(C)(C)C)C1)[C@H](CC(C)C)CO2` (stereo partly shown), in series [1] (from Cc1cccc(C)c1-c1cc(OC[C@@H](CC(C)C)NC2CCN(C(=O)OC(C)(C)C)C2)nc(NS(=O)(=O)c2cccc(C(=O)O)c2)n1, COMU/DIPEA, DMF, 10.0 mM, 16.0 h, 2 steps), the ring closure, isolated yield was determined as 28%.

Consider `Cc1cccc(C)c1-c1cc2nc(n1)NS(=O)(=O)c1cccc(c1)C(=O)N(C1CC3(CC3)C1)[C@H](CC(C)(C)O)CO2` [Compound 51, (11R)-6-(2,6-Dimethylphenyl)-11-(2-hydroxy-2-methyl-propyl)-2,2-dioxo-12-spiro[2.3]hexan-5-yl-9-oxa-2λ^6-thia-3,5,12,19-tetrazatricyclo[12.3.1.14,8]nonadeca-1(18),4(19),5,7,14,16-hexaen-13-one], for which, at CFTR [2] (Table 10), the “Ent. B Max Activity (%)” value is listed as “+++ (+++ is >60%)”. For the same compound, on CFTR [2] (setting [4]), the pEC50 is 5.52 to 6.00. In series [1] (from Cc1cccc(C)c1-c1cc(OC[C@@H](CC(C)(C)O)NC2CC3(CC3)C2)nc(NS(=O)(=O)c2cccc(C(=O)O)c2)n1, T3P/Et3N, DMF/EtOAc, 26.4 mM, 4.0 h), this compound showed a ring closure, isolated yield of 17%.

With `Cc1cccc(C)c1-c1cc2nc(n1)NS(=O)(=O)c1cccc(c1)C(=O)N(C1CC3(CCN(C(=O)OC(C)(C)C)CC3)C1)[C@H](CC1(C(F)(F)F)CC1)CO2` [Compound 127, tert-butyl 2-[(11R)-6-(2,6-dimethylphenyl)-2,2,13-trioxo-11-[[1-(trifluoromethyl)cyclopropyl]methyl]-9-oxa-2λ^6-thia-3,5,12,19-tetrazatricyclo[12.3.1.14,8]nonadeca-1(18),4(19),5,7,14,16-hexaen-12-yl]-7-azaspiro[3.5]nonane-7-carboxylate], the “Ent. B Max Activity (%)” value on CFTR [2] is given as “+++ (+++ is >60%)”. Besides, at CFTR [2] (read-out: Ent. B EC50), the negative logarithm of the EC50 (pEC50) was above 6.00. Moreover, the ring closure, isolated yield in series [1] (from Cc1cccc(C)c1-c1cc(OC[C@@H](CC2(C(F)(F)F)CC2)NC2CC3(CCN(C(=O)OC(C)(C)C)CC3)C2)nc(NS(=O)(=O)c2cccc(C(=O)O)c2)n1, HATU/DIEA, DMF, 65.3 mM, 16.0 h) turned out to be 59%.

With `Cc1cccc(C)c1-c1cc2nc(n1)NS(=O)(=O)c1cccc(n1)C(=O)N(C1CC3(CC3)C1)[C@H](CC1(C(F)(F)F)CC1)CO2` [Compound 163, (11R)-6-(2,6-Dimethylphenyl)-2,2-dioxo-12-spiro[2.3]hexan-5-yl-11-[[1-(trifluoromethyl)cyclopropyl]methyl]-9-oxa-2λ^6-thia-3,5,12,18,19-pentazatricyclo[12.3.1.14,8]nonadeca-1(18),4(19),5,7,14,16-hexaen-13-one], the “Ent. A Max Activity (%)” value on CFTR [3] was “+++ (+++ is >60%)”. In addition, the pEC50 on CFTR [3] (read-out: Ent. A EC50) was above 6.00. Further, in series [1] (from Cc1cccc(C)c1-c1cc(OC[C@@H](CC2(C(F)(F)F)CC2)NC2CC3(CC3)C2)nc(NS(=O)(=O)c2cccc(C(=O)O)n2)n1, HATU/DIEA, NMP, 99.8 mM, 25.0 °C, 16.0 h), the ring closure, isolated yield was found to be 58%.

As for `Cc1cccc(C)c1-c1cc2nc(n1)NS(=O)(=O)c1cccc(c1)C(=O)N(C1CC3(CCN(C(=O)OC(C)(C)C)CC3)C1)[C@H](CC(C)(C)C(F)(F)F)CO2` [Compound 187, tert-Butyl 2-[(11R)-6-(2,6-dimethylphenyl)-2,2,13-trioxo-11-(3,3,3-trifluoro-2,2-dimethylpropyl)-9-oxa-2λ^6-thia-3,5,12,19-tetraazatricyclo[12.3.1.14,8]nonadeca-1(17),4(19),5,7,14(18),15-hexaen-12-yl]-7-azaspiro[3.5]nonane-7-carboxylate], the “Ent. B Max Activity (%)” value at CFTR [2] (Table 9) is listed as “+++ (+++ is >60%)”. For the same compound, at CFTR [2] (Table 9, read-out: Ent. B EC50), the pEC50 is above 6.00. The ring closure, isolated yield in series [1] (from Cc1cccc(C)c1-c1cc(OC[C@@H](CC(C)(C)C(F)(F)F)NC2CC3(CCN(C(=O)OC(C)(C)C)CC3)C2)nc(NS(=O)(=O)c2cccc(C(=O)O)c2)n1, HATU/DIEA, DMF, 37.7 mM, 17.0 h) is 15%.

`Cc1cccc(C)c1-c1cc2nc(n1)NS(=O)(=O)c1cccc(c1)C(=O)N(C1CC3(CC(NC(=O)OC(C)(C)C)C3)C1)[C@H](CC(C)(C)C)CO2` (stereo partly shown) [Compound 199]: on CFTR [2] (Table 10), the “Ent. B Max Activity (%)” value is on record as “+++ (+++ is >60%)”. The negative logarithm of the EC50 (pEC50) on CFTR [2] (setting [4]) was above 6.00. The ring closure, isolated yield in series [1] (from Cc1cccc(C)c1-c1cc(OC[C@@H](CC(C)(C)C)NC2CC3(CC(NC(=O)OC(C)(C)C)C3)C2)nc(NS(=O)(=O)c2cccc(C(=O)O)c2)n1, HATU/DIEA, DMF, 107.7 mM, 24.0 h) stood at 63%; in series [1] (from Cc1cccc(C)c1-c1cc(OC[C@@H](CC(C)(C)C)NC2CC3(CC(NC(=O)OC(C)(C)C)C3)C2)nc(NS(=O)(=O)c2cccc(C(=O)O)c2)n1, HATU/DIEA, DMF, 120.7 mM, 36.0 h), 80%.

The values are drawn from patent publication US20230382925A1, “MODULATORS OF CYSTIC FIBROSIS TRANSMEMBRANE CONDUCTANCE REGULATOR” (VERTEX PHARMACEUTICALS INCORPORATED, priority 2020, published 2023).
